Assay: xn = mol fraction of the nth substance listed
Settings: Liquid

CN(CCO)CCO [N-methyldiethanolamine] + O
Settings	mass density [kg/m3]
313.12 K, 1001 kPa, x1 = 0.0369	1005.7
313.12 K, 2015 kPa, x1 = 0.0369	1006.1
313.12 K, 2986 kPa, x1 = 0.0369	1006.5
313.12 K, 3994 kPa, x1 = 0.0369	1006.9
313.12 K, 5003 kPa, x1 = 0.0369	1007.3
313.12 K, 6002 kPa, x1 = 0.0369	1007.7
313.12 K, 6994 kPa, x1 = 0.0369	1008.1
313.12 K, 7995 kPa, x1 = 0.0369	1008.5
313.12 K, 8996 kPa, x1 = 0.0369	1008.9
313.12 K, 9983 kPa, x1 = 0.0369	1009.3
313.12 K, 10989 kPa, x1 = 0.0369	1009.7
313.12 K, 11991 kPa, x1 = 0.0369	1010.1
313.12 K, 12991 kPa, x1 = 0.0369	1010.5
313.12 K, 13988 kPa, x1 = 0.0369	1010.9
313.12 K, 14989 kPa, x1 = 0.0369	1011.4
313.12 K, 15985 kPa, x1 = 0.0369	1011.7
313.12 K, 16984 kPa, x1 = 0.0369	1012.1
313.12 K, 17985 kPa, x1 = 0.0369	1012.5
313.12 K, 18989 kPa, x1 = 0.0369	1012.9
313.12 K, 19945 kPa, x1 = 0.0369	1013.3
313.13 K, 1003 kPa, x1 = 0.1302	1033.5
313.13 K, 1011 kPa, x1 = 0.0893	1025.9
313.13 K, 1993 kPa, x1 = 0.1302	1033.9
313.13 K, 1994 kPa, x1 = 0.0893	1026.2
313.13 K, 2999 kPa, x1 = 0.1302	1034.3
313.13 K, 3002 kPa, x1 = 0.0893	1026.6
313.13 K, 3994 kPa, x1 = 0.1302	1034.6
313.13 K, 3998 kPa, x1 = 0.0893	1027
313.13 K, 4984 kPa, x1 = 0.1302	1035
313.13 K, 4998 kPa, x1 = 0.0893	1027.4
313.13 K, 6001 kPa, x1 = 0.0893	1027.8
313.13 K, 6001 kPa, x1 = 0.1302	1035.4
313.13 K, 6993 kPa, x1 = 0.1302	1035.8
313.13 K, 6994 kPa, x1 = 0.0893	1028.1
313.13 K, 8000 kPa, x1 = 0.0893	1028.5
313.13 K, 8003 kPa, x1 = 0.1302	1036.1
313.13 K, 8996 kPa, x1 = 0.1302	1036.5
313.13 K, 8999 kPa, x1 = 0.0893	1028.9
313.13 K, 9989 kPa, x1 = 0.1302	1036.8
313.13 K, 9995 kPa, x1 = 0.0893	1029.2
313.13 K, 10983 kPa, x1 = 0.1302	1037.2
313.13 K, 10990 kPa, x1 = 0.0893	1029.6
313.13 K, 11992 kPa, x1 = 0.1302	1037.6
313.13 K, 12001 kPa, x1 = 0.0893	1030
313.13 K, 12980 kPa, x1 = 0.1302	1037.9
313.13 K, 12989 kPa, x1 = 0.0893	1030.3
313.13 K, 14000 kPa, x1 = 0.0893	1030.7
313.13 K, 14000 kPa, x1 = 0.1302	1038.3
313.13 K, 14999 kPa, x1 = 0.0893	1031.1
313.13 K, 15002 kPa, x1 = 0.1302	1038.7
313.13 K, 15995 kPa, x1 = 0.0893	1031.4
313.13 K, 16001 kPa, x1 = 0.1302	1039.1

From the NIST ThermoML archive (doi:10.1021/je700287u)
